What was measured:
[1] = target: T1, Purine nucleoside phosphorylase (Homo sapiens, UniProt P00491); assay: Inhibition of human purine nucleoside phosphorylase assessed as slow onset inhibition constant by xanthine-oxidase coupled assay
T1 sequence (P00491 whole entry): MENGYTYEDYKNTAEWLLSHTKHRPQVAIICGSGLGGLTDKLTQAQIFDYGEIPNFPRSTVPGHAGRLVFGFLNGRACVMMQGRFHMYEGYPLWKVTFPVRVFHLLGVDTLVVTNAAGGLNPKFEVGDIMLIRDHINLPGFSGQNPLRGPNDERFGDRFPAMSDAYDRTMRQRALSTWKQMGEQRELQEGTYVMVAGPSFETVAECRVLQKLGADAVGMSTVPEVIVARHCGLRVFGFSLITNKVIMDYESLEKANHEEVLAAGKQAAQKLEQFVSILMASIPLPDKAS

[2] = target: T1, Purine nucleoside phosphorylase; assay: Inhibition of human purine nucleoside phosphorylase by xanthine-oxidase coupled assay

Ki [1]: 0.5 nM
Ki [2]: 0.066 nM
SMILES: O=c1[nH]cnc2c(CN3C[C@H](O)[C@@](F)(CO)C3)c[nH]c12 [Immucillins, 1]

From BindingDB's records for doi:10.1021/jm800792b (Industrial Research, 2008)
